Experimental data taken from patent publication US20060223837A1 (priority 2005, published 2006).

Biological target: T1, human VR1 (Homo sapiens, UniProt Q8NER1)
T1 construct: expressed in transfected cells; host or cells: HEK293
Assay: Human VR1 functional assay (FLIPR intracellular Ca2+)
Type: cell-based
Conditions: for IC50: antagonism of capsaicin-induced Ca2+ increase, read-out: h IC50; for inhibition at 5 µM: read-out: h % I (5 μM)
Protocol: The functional activity of the test compounds was determined by measuring changes in intracellular calcium concentration using a Ca^2+-sensitive fluorescent dye and FLIPR™ technology. Increases in Ca^2+ concentration were readily detected upon challenge with capsaicin. HEK293 Cells expressing human VR1 were grown on poly-D-lysine coated 384 well black-walled plates (BD 354663) and 1 day later loaded with Calcium 3 Dye for 35 min at 37 C, 5% CO2 and then for 25 min at room temperature, and subsequently tested for agonist-induced increases in intracellular Ca^2+ levels using FLIPR™ technology. Cells were challenged with test compounds (at varying concentrations, which are indicated in parentheses in the heading of the table below) and intracellular Ca^2+ was measured for 5 min prior to the addition of capsaicin to all wells to achieve a final concentration of eliciting an approximate 80% maximal response ([…]). EC50 or IC50 values were determined from dose-response studies. Curves were generated using the average of quadruplicate wells for each data point.

[1] = inhibition of capsaicin response, 1 μM
[2] = inhibition of capsaicin response

T1 sequence (Q8NER1 whole entry): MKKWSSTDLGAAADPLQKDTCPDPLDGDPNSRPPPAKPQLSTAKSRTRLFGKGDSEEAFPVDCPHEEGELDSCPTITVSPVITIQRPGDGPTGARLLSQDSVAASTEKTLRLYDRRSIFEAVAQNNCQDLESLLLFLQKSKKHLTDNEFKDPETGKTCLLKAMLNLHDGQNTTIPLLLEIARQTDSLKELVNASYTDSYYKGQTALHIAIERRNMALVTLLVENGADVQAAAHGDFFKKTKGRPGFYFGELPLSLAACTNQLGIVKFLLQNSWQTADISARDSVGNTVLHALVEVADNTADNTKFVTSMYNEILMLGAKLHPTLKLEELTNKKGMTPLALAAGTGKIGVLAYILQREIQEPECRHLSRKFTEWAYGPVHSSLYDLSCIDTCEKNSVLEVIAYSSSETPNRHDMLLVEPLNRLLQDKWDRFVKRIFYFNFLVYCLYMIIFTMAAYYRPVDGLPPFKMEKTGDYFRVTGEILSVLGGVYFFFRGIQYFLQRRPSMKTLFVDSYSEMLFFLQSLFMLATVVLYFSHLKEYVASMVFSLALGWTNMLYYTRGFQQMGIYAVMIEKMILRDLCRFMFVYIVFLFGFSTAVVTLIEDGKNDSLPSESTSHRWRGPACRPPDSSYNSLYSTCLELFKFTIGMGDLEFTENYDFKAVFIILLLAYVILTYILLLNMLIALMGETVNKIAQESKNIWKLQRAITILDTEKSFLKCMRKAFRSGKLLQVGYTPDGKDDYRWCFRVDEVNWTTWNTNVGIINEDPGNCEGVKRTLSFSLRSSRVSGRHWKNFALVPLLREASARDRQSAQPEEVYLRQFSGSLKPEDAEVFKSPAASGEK

## Cc1cc(NC(=O)CCc2ccc(SC(F)(F)F)cc2)cnc1-n1cnc(Cl)c1Cl
[1]
  h % I (1 μM): 41%

## CC(C)(C)c1ccc(CCC(=O)Nc2ccccc2-c2ccccc2O)cc1 [Cpd 8]
Inhibition of capsaicin response, 10 μM
  h % I (10 μM): 45%

## Cc1cc(NC(=O)CCc2ccc(C(C)(C)C)cc2)cc(C)c1-c1cccc(O)c1 [Cpd 86, 3-(4-tert-butyl-phenyl)-N-(3′-hydroxy-2,6-dimethyl-biphenyl-4-yl)-propionamide]
  IC50: 109 nM
[2]
  inhibition at 5 µM: 97%

## Cc1cc(NC(=O)CCc2ccc(C(C)(C)C)cc2)cc(C)c1-c1ccc(O)cc1 [Cpd 87]
  IC50: 857 nM
[2]
  inhibition at 5 µM: 92%

## Cc1cc(NC(=O)CCc2ccc(C(C)(C)C)cc2)cc(C)c1-c1ccc(CO)cc1 [Cpd 88]
  IC50: 1710 nM
[2]
  inhibition at 5 µM: 84%

## CC(C)(C)c1ccc(CCC(=O)Nc2cc(F)c(-c3cccc(O)c3)c(F)c2)cc1 [Cpd 89]
[2]
  h % I (5 μM): 65%

## CC(C)(C)c1ccc(CCC(=O)Nc2cc(F)c(-c3ccc(O)cc3)c(F)c2)cc1 [Cpd 90]
Agonist response, 6 μM
  % Response Relative to EC80 of Capsaicin (6 μM): 17%

## CC(C)(C)c1ccc(CCC(=O)Nc2cc(F)c(-c3ccc(CO)cc3)c(F)c2)cc1 [Cpd 91]
Agonist response, 6 μM
  % Response Relative to EC80 of Capsaicin (6 μM): 22%

## CC(C)(C)c1ccc(CCC(=O)Nc2ccc(-c3cccc(CO)c3)c(CO)c2)cc1 [Cpd 95]
Agonist response, 6 μM, read-out: % Response Relative to EC80 of Capsaicin (6 μM)
  Emax at 6 µM: 127%
agonist-induced Ca2+ increase, read-out: h EC50
  EC50: 248 nM
Inhibition of capsaicin response, 1 μM, read-out: h % I (1 μM)
  inhibition at 1 µM: 40%

## Cc1cc(NC(=O)CCc2ccc(C(C)(C)C)cc2)cnc1-c1cccc(O)c1 [Cpd 161, 3-(4-tert-butyl-phenyl)-N-[6-(3-hydroxy-phenyl)-5-methyl-pyridin-3-yl]-propionamide]
  IC50: 36 nM
[2]
  inhibition at 5 µM: 94%

## Cc1cc(NC(=O)CCc2ccc(C(C)(C)C)cc2)cnc1-c1ccc(O)cc1 [Cpd 162, 3-(4-tert-butyl-phenyl)-N-[6-(4-hydroxy-phenyl)-5-methyl-pyridin-3-yl]-propionamide]
  IC50: 126 nM
[2]
  inhibition at 5 µM: 99%

## Cc1cc(NC(=O)CCc2ccc(C(C)(C)C)cc2)cnc1-c1ccc(CO)cc1 [Cpd 163, 3-(4-tert-butyl-phenyl)-N-[6-(4-hydroxymethyl-phenyl)-5-methyl-pyridin-3-yl]-propionamide]
  IC50: 97 nM
[2]
  inhibition at 5 µM: 100%

## Cc1cc(NC(=O)CCc2ccc(C(C)(C)C)cc2)cnc1-c1cccnc1 [Cpd 164, 3-(4-tert-butyl-phenyl)-N-(3-methyl-[2,3′]bipyridinyl-5-yl)-propionamide]
  IC50: 193 nM
[2]
  inhibition at 5 µM: 99%

## Cc1cc(NC(=O)CCc2ccc(C(C)(C)C)cc2)cnc1-c1ccncc1 [Cpd 165, 3-(4-tert-butyl-phenyl)-N-(3-methyl-[2,4′]bipyridinyl-5-yl)-propionamide]
  IC50: 73 nM
[2]
  inhibition at 5 µM: 99%

## Cc1cc(NC(=O)CCc2ccc(C(C)(C)C)cc2)cc(C)c1-c1cccnc1 [Cpd 166]
  IC50: 2860 nM
[2]
  inhibition at 5 µM: 76%

## Cc1cc(NC(=O)CCc2ccc(C(C)(C)C)cc2)cc(C)c1-c1ccncc1 [Cpd 167, 3-(4-tert-butyl-phenyl)-N-(3,5-dimethyl-4-pyridin-4-yl-phenyl)-propionamide]
  IC50: 183 nM
[2]
  inhibition at 5 µM: 93%

## CC(C)(C)c1ccc(CCC(=O)Nc2cc(F)c(-c3cccnc3)c(F)c2)cc1 [Cpd 168]
  IC50: 1560 nM
[2]
  inhibition at 5 µM: 95%

## CC(C)(C)c1ccc(CCC(=O)Nc2ccc(-c3cccnc3)c(CO)c2)cc1 [Cpd 170]
Agonist response, 6 μM
  % Response Relative to EC80 of Capsaicin (6 μM): 101%
[1]
  h % I (1 μM): 37%

## Cc1cc(NC(=O)CCc2ccc(C(C)(C)C)cc2)ccc1-c1ccccn1 [Cpd 172]
  IC50: 142 nM

## CC(C)(C)c1ccc(CCC(=O)Nc2ccc(-c3ccccn3)c(F)c2)cc1 [Cpd 173]
  IC50: 388 nM

## Cc1cc(NC(=O)CCc2ccc(C(C)(C)C)cc2)cc(C)c1-c1ccccn1 [Cpd 174]
  IC50: 2890 nM

## Cc1cc(NC(=O)CCc2ccc(C(C)(C)C)cc2)cnc1-c1ccccn1 [Cpd 177]
  IC50: 295 nM

## CC(C)(C)c1ccc(CCC(=O)Nc2ccc(-c3cccnc3)c(F)c2)cc1 [Cpd 181]
  IC50: 400 nM

## CC(C)(C)c1ccc(CCC(=O)Nc2cnc(-c3ccccc3O)cn2)cc1 [Cpd 183]
[1]
  h % I (1 μM): 1%
[2]
  h % I (5 μM): 9%
